Assay results: ChEMBL document CHEMBL1136643, “Identification of a novel series of selective 5-HT7 receptor antagonists” (Bioorg Med Chem Lett, 2003)

Columns and labels:
[1] = target: 5-hydroxytryptamine receptor 2A (Homo sapiens, UniProt P28223); assay: Binding affinity at human cloned 5-hydroxytryptamine 2A receptor.
[2] = target: 5-hydroxytryptamine receptor 7 (Homo sapiens, UniProt P34969); assay: Binding affinity at human cloned 5-hydroxytryptamine 7 receptor.
Cytochrome P450 2C9 = Cytochrome P450 2C9 (Homo sapiens, UniProt P11712); assay: Inhibition of human cytochrome P450 isoform 2C9; assay type: ADME
Sequence of Cytochrome P450 2C9 (P11712 whole entry, canonical isoform): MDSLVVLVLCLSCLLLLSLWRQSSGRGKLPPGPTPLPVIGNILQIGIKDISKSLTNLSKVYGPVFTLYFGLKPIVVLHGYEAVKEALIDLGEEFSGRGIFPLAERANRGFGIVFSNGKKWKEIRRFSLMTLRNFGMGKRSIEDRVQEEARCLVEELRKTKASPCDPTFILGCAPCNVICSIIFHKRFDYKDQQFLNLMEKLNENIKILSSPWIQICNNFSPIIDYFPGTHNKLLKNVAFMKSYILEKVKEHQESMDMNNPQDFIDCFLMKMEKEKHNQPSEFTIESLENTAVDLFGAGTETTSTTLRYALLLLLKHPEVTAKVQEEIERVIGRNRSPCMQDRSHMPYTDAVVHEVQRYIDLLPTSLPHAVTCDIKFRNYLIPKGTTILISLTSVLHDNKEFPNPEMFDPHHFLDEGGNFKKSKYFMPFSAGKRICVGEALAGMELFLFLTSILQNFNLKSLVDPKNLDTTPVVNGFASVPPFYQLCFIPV

Cytochrome P450 3A4 = Cytochrome P450 3A4 (Homo sapiens, UniProt P08684); assay: Inhibition of human Cytochrome P450 3A4; assay type: ADME
Sequence of Cytochrome P450 3A4 (P08684 whole entry): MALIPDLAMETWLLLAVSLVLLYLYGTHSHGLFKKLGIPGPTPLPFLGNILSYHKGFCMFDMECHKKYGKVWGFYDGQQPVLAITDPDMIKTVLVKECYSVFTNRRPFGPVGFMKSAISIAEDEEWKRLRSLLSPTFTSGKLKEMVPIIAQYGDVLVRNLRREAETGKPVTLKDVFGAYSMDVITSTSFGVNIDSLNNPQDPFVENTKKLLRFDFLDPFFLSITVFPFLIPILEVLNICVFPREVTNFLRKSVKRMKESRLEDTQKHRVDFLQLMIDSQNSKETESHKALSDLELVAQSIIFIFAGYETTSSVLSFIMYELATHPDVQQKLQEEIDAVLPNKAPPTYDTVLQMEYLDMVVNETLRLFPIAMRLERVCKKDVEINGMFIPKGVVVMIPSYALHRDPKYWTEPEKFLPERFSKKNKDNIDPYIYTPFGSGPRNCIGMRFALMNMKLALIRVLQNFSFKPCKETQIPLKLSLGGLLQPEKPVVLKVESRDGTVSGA

[3] = target: T1, 5-hydroxytryptamine receptor 1F (Homo sapiens, UniProt P30939); assay: Binding affinity towards cloned human 5-hydroxytryptamine 1F receptor was determined
T1 sequence (P30939 whole entry): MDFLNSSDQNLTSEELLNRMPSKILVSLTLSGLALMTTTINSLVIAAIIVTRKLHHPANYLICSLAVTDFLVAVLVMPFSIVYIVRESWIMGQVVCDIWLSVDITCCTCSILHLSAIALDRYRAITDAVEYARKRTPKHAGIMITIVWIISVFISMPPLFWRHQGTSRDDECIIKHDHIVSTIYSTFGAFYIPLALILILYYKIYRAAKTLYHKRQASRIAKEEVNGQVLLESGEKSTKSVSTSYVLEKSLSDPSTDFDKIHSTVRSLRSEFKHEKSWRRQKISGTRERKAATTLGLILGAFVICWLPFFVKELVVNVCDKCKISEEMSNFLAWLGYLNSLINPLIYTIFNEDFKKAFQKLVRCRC

D(3) dopamine receptor = D(3) dopamine receptor (Homo sapiens, UniProt P35462); assay: Binding affinity towards cloned human dopamine D3 receptor was determined
Sequence of D(3) dopamine receptor (P35462 whole entry): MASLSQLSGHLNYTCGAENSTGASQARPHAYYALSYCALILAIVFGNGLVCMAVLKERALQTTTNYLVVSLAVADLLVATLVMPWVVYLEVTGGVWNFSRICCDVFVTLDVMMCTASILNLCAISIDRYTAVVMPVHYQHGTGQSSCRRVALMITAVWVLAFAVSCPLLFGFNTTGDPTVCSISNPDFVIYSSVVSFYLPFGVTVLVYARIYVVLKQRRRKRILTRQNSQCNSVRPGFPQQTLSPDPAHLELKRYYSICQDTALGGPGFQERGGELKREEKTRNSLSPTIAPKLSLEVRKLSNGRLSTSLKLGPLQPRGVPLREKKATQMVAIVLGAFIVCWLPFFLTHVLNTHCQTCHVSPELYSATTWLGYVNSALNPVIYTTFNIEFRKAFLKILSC

[4] = target: 5-hydroxytryptamine receptor 1B (Homo sapiens, UniProt P28222); assay: Binding affinity towards cloned human 5-hydroxytryptamine 1B receptor was determined
Sequence of 5-hydroxytryptamine receptor 1B (P28222 whole entry): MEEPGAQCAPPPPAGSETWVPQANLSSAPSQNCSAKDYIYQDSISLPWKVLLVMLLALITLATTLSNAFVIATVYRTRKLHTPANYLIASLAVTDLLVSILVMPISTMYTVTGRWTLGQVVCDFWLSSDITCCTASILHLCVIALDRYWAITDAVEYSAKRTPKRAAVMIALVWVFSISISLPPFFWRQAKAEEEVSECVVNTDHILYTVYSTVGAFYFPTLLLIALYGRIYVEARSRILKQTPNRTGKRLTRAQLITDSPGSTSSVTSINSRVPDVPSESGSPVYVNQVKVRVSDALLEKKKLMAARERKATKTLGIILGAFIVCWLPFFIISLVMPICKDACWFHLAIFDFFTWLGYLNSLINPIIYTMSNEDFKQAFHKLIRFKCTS

[5] = target: 5-hydroxytryptamine receptor 6 (Homo sapiens, UniProt P50406); assay: Binding affinity towards human 5-hydroxytryptamine 6 receptor
Sequence of 5-hydroxytryptamine receptor 6 (P50406 whole entry): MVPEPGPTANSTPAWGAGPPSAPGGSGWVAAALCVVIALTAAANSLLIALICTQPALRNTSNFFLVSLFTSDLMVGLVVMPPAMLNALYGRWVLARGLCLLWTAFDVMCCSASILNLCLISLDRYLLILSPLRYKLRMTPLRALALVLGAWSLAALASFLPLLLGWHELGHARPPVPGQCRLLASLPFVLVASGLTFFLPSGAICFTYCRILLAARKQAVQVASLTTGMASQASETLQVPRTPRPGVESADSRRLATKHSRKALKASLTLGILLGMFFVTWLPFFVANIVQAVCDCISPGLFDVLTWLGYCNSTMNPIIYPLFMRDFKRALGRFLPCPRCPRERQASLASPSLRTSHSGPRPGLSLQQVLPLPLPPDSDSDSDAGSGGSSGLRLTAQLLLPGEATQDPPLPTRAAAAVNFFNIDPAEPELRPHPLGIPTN

Cytochrome P450 1A2 = target: T2, Cytochrome P450 1A2 (Homo sapiens, UniProt P05177); assay: Inhibition of human Cytochrome P450 1A2; assay type: ADME
T2 sequence (P05177 whole entry): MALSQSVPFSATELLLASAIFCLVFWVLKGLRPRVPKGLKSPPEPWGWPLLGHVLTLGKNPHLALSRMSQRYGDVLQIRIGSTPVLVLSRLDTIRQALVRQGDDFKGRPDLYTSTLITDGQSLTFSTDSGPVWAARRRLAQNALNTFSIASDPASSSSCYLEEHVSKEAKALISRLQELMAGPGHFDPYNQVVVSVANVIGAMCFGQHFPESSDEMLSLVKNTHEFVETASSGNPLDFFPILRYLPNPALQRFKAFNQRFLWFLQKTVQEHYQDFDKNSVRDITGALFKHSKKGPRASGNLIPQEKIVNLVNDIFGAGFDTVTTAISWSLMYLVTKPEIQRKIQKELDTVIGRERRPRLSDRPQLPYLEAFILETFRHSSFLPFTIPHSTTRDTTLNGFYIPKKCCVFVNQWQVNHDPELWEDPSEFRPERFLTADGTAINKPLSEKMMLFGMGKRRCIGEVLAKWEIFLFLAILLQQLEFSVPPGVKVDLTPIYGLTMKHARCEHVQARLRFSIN

[6] = target: T3, 5-hydroxytryptamine receptor 1A (Homo sapiens, UniProt P08908); assay: Binding affinity towards 5-hydroxytryptamine 1A receptor in human using [3H]8-OH-DPAT as radioligand
T3 sequence (P08908 whole entry): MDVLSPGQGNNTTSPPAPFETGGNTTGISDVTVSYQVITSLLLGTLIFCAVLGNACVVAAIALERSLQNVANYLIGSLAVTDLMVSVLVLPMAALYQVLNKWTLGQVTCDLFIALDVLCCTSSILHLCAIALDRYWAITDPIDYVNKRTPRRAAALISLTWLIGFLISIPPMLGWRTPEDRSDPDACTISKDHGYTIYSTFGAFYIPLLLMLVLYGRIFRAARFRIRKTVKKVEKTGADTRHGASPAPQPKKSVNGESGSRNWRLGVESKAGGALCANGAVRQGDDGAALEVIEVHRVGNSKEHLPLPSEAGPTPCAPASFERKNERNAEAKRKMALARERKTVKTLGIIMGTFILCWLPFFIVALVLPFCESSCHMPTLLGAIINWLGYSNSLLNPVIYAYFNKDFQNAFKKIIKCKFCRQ

[7] = target: T4, 5-hydroxytryptamine receptor 2C (Homo sapiens, UniProt P28335); assay: Binding affinity towards cloned human 5-hydroxytryptamine 2C receptor was determined
T4 sequence (P28335 whole entry): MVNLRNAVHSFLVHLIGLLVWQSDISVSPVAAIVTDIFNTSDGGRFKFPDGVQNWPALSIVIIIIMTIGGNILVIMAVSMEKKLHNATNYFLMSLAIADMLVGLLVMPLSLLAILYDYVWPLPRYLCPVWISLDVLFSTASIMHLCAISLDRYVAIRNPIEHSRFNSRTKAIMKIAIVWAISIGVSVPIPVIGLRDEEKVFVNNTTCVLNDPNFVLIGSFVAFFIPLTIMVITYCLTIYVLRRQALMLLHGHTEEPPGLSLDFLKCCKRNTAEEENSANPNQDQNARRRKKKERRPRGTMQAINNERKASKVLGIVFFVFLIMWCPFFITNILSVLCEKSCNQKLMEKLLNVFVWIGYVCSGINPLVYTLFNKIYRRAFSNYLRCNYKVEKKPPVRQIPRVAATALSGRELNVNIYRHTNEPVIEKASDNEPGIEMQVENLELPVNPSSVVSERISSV

D(4) dopamine receptor = target: T5, D(4) dopamine receptor (Homo sapiens, UniProt P21917); assay: Binding affinity towards cloned human dopamine D4 receptor was determined
T5 sequence (P21917 whole entry): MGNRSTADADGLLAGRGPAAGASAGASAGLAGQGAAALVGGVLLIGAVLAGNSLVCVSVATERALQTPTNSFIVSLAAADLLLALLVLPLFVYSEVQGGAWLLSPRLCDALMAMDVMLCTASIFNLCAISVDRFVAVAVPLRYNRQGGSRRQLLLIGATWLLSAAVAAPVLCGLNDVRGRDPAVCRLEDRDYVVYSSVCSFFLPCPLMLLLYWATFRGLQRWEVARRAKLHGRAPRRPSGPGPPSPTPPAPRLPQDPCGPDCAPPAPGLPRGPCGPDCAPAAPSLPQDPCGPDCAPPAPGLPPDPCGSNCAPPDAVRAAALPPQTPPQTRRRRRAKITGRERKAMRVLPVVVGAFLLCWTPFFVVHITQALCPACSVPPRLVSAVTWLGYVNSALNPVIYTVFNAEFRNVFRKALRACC

[8] = target: 5-hydroxytryptamine receptor 5A (Homo sapiens, UniProt P47898); assay: Binding affinity towards cloned human 5-HT5A receptor was determined
[9] = target: 5-hydroxytryptamine receptor 1D (Homo sapiens, UniProt P28221); assay: Binding affinity towards cloned human 5-hydroxytryptamine 1D receptor
Sequence of 5-hydroxytryptamine receptor 1D (P28221 whole entry): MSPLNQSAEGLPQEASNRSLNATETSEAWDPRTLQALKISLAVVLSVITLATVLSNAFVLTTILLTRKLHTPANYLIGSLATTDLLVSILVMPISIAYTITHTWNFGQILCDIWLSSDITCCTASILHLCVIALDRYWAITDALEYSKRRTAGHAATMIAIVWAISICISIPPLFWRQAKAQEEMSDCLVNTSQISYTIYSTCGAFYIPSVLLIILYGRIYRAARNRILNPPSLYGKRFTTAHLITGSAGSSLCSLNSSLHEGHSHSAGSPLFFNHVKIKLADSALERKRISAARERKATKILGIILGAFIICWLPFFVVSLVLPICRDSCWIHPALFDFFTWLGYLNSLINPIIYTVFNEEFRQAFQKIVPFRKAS

[10] = target: 5-hydroxytryptamine receptor 2B (Homo sapiens, UniProt P41595); assay: Binding affinity towards cloned human 5-hydroxytryptamine 2B receptor was determined
Sequence of 5-hydroxytryptamine receptor 2B (P41595 whole entry): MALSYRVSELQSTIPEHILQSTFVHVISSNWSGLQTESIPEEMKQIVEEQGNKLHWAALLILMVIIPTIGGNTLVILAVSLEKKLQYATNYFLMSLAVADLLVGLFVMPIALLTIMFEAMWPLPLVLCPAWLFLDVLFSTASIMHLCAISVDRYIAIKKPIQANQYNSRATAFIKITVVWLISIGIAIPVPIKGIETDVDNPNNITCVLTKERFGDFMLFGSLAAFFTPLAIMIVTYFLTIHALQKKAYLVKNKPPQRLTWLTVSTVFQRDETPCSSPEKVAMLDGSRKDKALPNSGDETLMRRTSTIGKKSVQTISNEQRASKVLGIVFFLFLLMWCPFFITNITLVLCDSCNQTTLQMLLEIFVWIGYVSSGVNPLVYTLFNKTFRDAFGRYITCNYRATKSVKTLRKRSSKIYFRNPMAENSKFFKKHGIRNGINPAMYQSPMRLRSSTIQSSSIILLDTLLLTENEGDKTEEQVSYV

Cytochrome P450 2C19 = Cytochrome P450 2C19 (Homo sapiens, UniProt P33261); assay: Inhibition of human Cytochrome P450 2C19; assay type: ADME
Cytochrome P450 2D6 = Cytochrome P450 2D6 (Homo sapiens, UniProt P10635); assay: Inhibition of human Cytochrome P450 2D6; assay type: ADME
Sequence of Cytochrome P450 2D6 (P10635 whole entry): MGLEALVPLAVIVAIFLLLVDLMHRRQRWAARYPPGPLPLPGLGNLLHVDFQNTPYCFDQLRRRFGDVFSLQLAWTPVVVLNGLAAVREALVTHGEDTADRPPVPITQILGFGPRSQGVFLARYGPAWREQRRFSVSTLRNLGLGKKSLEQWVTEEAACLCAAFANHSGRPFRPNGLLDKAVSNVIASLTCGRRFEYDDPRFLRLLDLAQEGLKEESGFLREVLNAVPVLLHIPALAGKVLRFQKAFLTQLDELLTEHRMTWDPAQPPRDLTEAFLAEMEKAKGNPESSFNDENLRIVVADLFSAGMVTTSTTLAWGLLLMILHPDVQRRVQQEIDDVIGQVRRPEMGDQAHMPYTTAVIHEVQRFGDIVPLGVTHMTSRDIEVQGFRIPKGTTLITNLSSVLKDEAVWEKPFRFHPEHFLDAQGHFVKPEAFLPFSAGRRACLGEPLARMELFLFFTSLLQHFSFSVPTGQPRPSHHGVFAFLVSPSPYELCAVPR

[11] = target: 5-hydroxytryptamine receptor 1E (Homo sapiens, UniProt P28566); assay: Binding affinity towards cloned human 5-hydroxytryptamine 1E receptor was determined
Sequence of 5-hydroxytryptamine receptor 1E (P28566 whole entry): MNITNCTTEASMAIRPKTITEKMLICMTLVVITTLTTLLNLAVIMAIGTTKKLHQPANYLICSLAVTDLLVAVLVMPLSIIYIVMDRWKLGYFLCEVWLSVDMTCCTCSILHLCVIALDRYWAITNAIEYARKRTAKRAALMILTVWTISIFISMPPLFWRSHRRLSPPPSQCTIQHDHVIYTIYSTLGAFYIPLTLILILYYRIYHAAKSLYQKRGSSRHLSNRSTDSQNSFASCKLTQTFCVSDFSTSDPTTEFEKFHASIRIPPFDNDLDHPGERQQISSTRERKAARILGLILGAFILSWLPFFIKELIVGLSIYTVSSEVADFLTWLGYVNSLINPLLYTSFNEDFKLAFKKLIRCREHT

Sequence of 5-hydroxytryptamine receptor 2A (P28223 whole entry): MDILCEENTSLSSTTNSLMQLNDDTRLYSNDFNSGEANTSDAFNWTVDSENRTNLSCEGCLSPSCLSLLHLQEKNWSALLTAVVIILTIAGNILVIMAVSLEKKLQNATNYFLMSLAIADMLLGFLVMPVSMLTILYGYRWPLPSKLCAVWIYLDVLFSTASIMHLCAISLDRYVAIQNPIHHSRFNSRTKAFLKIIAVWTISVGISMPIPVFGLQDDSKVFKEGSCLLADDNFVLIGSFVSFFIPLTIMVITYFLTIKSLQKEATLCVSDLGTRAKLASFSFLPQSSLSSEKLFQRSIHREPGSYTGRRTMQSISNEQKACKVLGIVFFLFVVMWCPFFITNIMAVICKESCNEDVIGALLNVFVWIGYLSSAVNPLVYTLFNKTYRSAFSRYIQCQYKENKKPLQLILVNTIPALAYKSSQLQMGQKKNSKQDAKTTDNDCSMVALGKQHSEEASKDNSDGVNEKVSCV
Sequence of 5-hydroxytryptamine receptor 7 (P34969 whole entry, canonical isoform): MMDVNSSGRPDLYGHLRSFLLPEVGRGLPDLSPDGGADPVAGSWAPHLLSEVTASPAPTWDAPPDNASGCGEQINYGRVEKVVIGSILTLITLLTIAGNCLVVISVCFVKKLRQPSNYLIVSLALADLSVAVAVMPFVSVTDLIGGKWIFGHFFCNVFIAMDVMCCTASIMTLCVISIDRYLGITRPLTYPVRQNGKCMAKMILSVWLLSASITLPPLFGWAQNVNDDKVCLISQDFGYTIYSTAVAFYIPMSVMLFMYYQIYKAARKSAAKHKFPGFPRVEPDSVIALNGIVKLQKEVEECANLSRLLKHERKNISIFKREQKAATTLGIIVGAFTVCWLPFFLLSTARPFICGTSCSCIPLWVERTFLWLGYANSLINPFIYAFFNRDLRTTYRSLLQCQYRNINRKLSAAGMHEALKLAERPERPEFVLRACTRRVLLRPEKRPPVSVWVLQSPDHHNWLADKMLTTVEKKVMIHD

| Structure (SMILES) | Ki [1] [nM] | Ki [2] [nM] | other results |
| --- | --- | --- | --- |
| O=C1c2ccccc2CCCN1CCN1CCC(c2c[nH]c3ccccc23)CC1 | 1.7 | 0.407 |  |
| Cc1ccccc1OC1CCN(CCC2CCCc3ccccc3C2=O)CC1 (stereo not given) |  | 11.2 |  |
| O=C1c2ccccc2CCCN1CCN1CCC(n2c(=O)oc3ccccc32)CC1 | 977 | 27.5 |  |
| O=C1c2ccccc2CCCN1CCN1CCC(n2c(O)nc3ccccc32)CC1 | > 1580 | 10.2 |  |
| O=C1c2ccccc2CCCN1CCN1CCC(n2c(=O)[nH]c3cc(F)ccc32)CC1 | 302 | 2.24 | IC50 (Cytochrome P450 2C9): 35000 nM; IC50 (Cytochrome P450 3A4): > 100000 nM; Ki [3]: > 10000 nM; Ki (D(3) dopamine receptor): 1700 nM; Ki [4]: > 3980 nM; Ki [5]: > 5010 nM; IC50 (Cytochrome P450 1A2): 62000 nM; Ki [6]: 479 nM; Ki [7]: 3310 nM; Ki (D(4) dopamine receptor): 1230 nM; Ki [8]: 1480 nM; Ki [9]: 2400 nM; Ki [10]: 1000 nM; IC50 (Cytochrome P450 2C19): > 100000 nM; IC50 (Cytochrome P450 2D6): 10000 nM; Ki [11]: > 10000 nM |
| O=C(c1ccc(Cl)cc1)C1CCN(CCN2CCCc3ccccc3C2=O)CC1 | 77.6 | 2.51 |  |
| O=C1c2ccccc2CCCN1CCN1CCC(Oc2ccc(F)cc2)CC1 | 31.6 | 4.47 |  |
| O=C1c2ccccc2CCCN1CCN1CCC(n2nnc3ccccc32)CC1 | 269 | 14.1 |  |
| O=C1c2ccccc2CCCN1CCN1CCC(Oc2ccc(Cl)cc2)CC1 | 74.1 | 11.7 |  |
| O=C1c2ccccc2CCCN1CCN1CCC(n2c(=O)oc3cc(F)ccc32)CC1 | 186 | 9.33 |  |
| O=C1c2ccccc2CCCN1CCN1CCC(n2nnc3cc(F)ccc32)CC1 | 49 | 2.04 |  |
| O=C1c2ccccc2CCCN1CCN1CCC(Oc2ccccc2)CC1 | 155 | 20.4 |  |
| O=C1c2ccccc2CCCC1CCN1CCC(Oc2ccccc2)CC1 (stereo not given) |  | 25.1 |  |
| O=C(c1ccc(F)cc1)C1CCN(CCN2CCCc3ccccc3C2=O)CC1 | 17 | 1.66 |  |
| O=C1CC(CN2CCC(Oc3ccccc3)CC2)CCc2ccccc21 (stereo not given) |  | 18.6 |  |
| Cc1ccc(OC2CCN(CCN3CCCc4ccccc4C3=O)CC2)cc1 | 55 | 9.12 |  |
| COc1ccccc1C1CCN(CC2CCc3ccccc3C(=O)C2)CC1 (stereo not given) |  | 11.2 |  |
| O=C1c2ccccc2CCCN1CCN1CCC(n2ccc3cc(F)ccc32)CC1 | 6.92 | 0.562 |  |
| O=C1c2ccccc2CCCN1CCN1CCC(n2ccc3ccccc32)CC1 | 19.5 | 2.75 |  |
